Data: article PMC6476888, “Design and synthesis of anticancer 1-hydroxynaphthalene-2-carboxanilides with a p53 independent mechanism of action” (Scientific Reports, 2019)
Like-named read-outs stand apart in the source and are kept apart here.

Columns and labels:
HCT116^−/− = test: Antiproliferative assay (MTS, 72 h) on HCT116 with p53 deletion; assay type: cell-based, human; conditions: for IC50: MTS, 72 h incubation
Protocol: (§1) All of the synthesized compounds were tested for their antiproliferative activity against human colon cancer (Table 1). We used both the wild-type and p53-negative cell lines (HCT116^+/+ and HCT116^−/−, respectively). Mutations in the TP53 gene are present in more than 50% of all cancers and often specifically correspond to a difficult therapy, resistance or a bad prognosis[60]–[63]. The active compounds were additionally tested for their cytotoxicity against normal human fibroblasts. We used 5-fluorouracil (5-FLU), doxorubicin (DOX) and CP-31398 as the standards. 5-FLU is one of the first antimetabolites that was dedicated for cancer treatment and is still used for a wide range of cancers including colon carcinoma. Doxorubicin is a DNA topoisomerase II poison with a high intercalating potency, which is able to induce apoptosis through the p53 pathway. Although DOX has been described as being ineffective in some p53 mutants, its level of activity against the p53 null lines is similar. CP-31398, on the other hand, is an experimental drug in the clinical phase and its mechanism of action is through the reactivation some of p53 mutants. Its activity against the p53 null cell lines is greatly diminished and is actually lower than its cytotoxicity.
(§2) The human colon cancer cell line HCT116 wild type was obtained from ATCC and the normal human fibroblast cell lines NHDF were obtained from PromoCell. The human colon cancer cell line HCT116 with a p53 deletion (p53^−/−) was kindly provided by Prof. M. Rusin from the Maria Sklodowska-Curie Memorial Cancer Centre and Institute of Oncology in Gliwice, Poland[89]. The cells were grown as monolayer cultures in Dulbecco’s modified Eagle’s medium with the antibiotic gentamicin (200 μL/100 mL medium) in 75 cm^2 flasks (Nunc). The DMEM for the HCT116 were supplemented with 12% heat-inactivated fetal bovine serum (Sigma-Aldrich, St. Louis, MO, USA) and for NHDF with 15% non-inactivated fetal bovine serum (Sigma Aldrich, St. Louis, MO, USA). The cells were cultured under standard conditions at 37 °C in a humidified atmosphere at 5% CO2.
(§3) The cells were seeded in 96-well plates (Nunc) at a density of 5,000 cells/well (HCT116) and 4,000 cells/well (NHDF) and incubated at 37 °C for 24 h. The assay was performed following a 72 h incubation with varying concentrations of the compounds that were being tested. Then, 20 µL of CellTiter 96® AQueous One Solution-MTS (Promega) was added to each well (with 100 µL DMEM without phenol red) and incubated for 1 h at 37 °C. The optical densities of the samples were analyzed at 490 nm using a Synergy 4 multi-plate reader (BioTek, Winooski, VT, USA). The results are expressed as the percentage of the control and were calculated as the inhibitory concentration (IC50) values (using a GraphPad Prism 7). The IC50 parameter was defined as the compound concentration that was necessary to reduce the proliferation of cells to 50% of the untreated control. Each individual compound was tested in triplicate in a single experiment with each experiment being repeated three or four times.

HCT116^+/+ = test: Antiproliferative assay (MTS, 72 h) on HCT116 wild type; assay type: cell-based, human; conditions: MTS, 72 h incubation, read-out: Activity IC50 HCT116^+/+
Protocol: as §1, §2, §3

NHDF = test: Cytotoxicity (MTS, 72 h) against normal human fibroblasts; assay type: cell-based; conditions: MTS, 72 h incubation
Protocol: as §1, §2, §3

Cc1cc(C)cc(NC(=O)c2ccc3ccccc3c2O)c1 [3f]
IC50 (HCT116^−/−; Homo sapiens, HCT-116): > 25 µM | IC50 (HCT116^+/+; Homo sapiens, HCT-116): 19.3 ± 1.68 µM | IC50 (NHDF; Homo sapiens, NHDF): > 25 µM

Cc1ccc(NC(=O)c2ccc3ccccc3c2O)cc1 [3c]
IC50 (HCT116^−/−): > 25 µM | IC50 (HCT116^+/+): > 25 µM

O=C(Nc1c(Br)cc(Br)cc1Br)c1ccc2ccccc2c1O [6g]
IC50 (HCT116^−/−): > 25 µM | IC50 (HCT116^+/+): > 25 µM

O=C(Nc1ccc(Cl)cc1)c1ccc2ccccc2c1O [5c]
IC50 (HCT116^−/−): 9.41 ± 0.78 µM | IC50 (HCT116^+/+): 9.62 ± 0.75 µM | IC50 (NHDF): > 25 µM

O=C(Nc1ccc(Br)cc1)c1ccc2ccccc2c1O [6c]
IC50 (HCT116^−/−): 11 ± 0.97 µM | IC50 (HCT116^+/+): 5.25 ± 0.67 µM | IC50 (NHDF): > 25 µM

O=C(Nc1ccc(Cl)cc1Cl)c1ccc2ccccc2c1O [5e]
IC50 (HCT116^−/−): 6.06 ± 1.13 µM | IC50 (HCT116^+/+): 1.95 ± 0.5 µM | IC50 (NHDF): > 25 µM

O=C(Nc1ccc(C(F)(F)F)cc1C(F)(F)F)c1ccc2ccccc2c1O [7d]
IC50 (HCT116^−/−): 8.69 ± 1.02 µM | IC50 (HCT116^+/+): 11.3 ± 1.31 µM | IC50 (NHDF): > 25 µM

COc1cc(NC(=O)c2ccc3ccccc3c2O)cc(OC)c1 [2e, N-(3,5-dimethoxyphenyl)−1-hydroxynaphthalene-2-carboxamide]
IC50 (HCT116^−/−; Homo sapiens, HCT-116): > 25 µM | IC50 (HCT116^+/+; Homo sapiens, HCT-116): > 25 µM | IC50 (NHDF; Homo sapiens, NHDF): > 25 µM

O=C(Nc1ccc(Cl)cc1Br)c1ccc2ccccc2c1O [6h]
IC50 (HCT116^−/−): 13.2 ± 2.3 µM | IC50 (HCT116^+/+): 9.54 ± 2.71 µM | IC50 (NHDF): > 25 µM

O=C(Nc1ccc(Cl)c(Cl)c1)c1ccc2ccccc2c1O [5h]
selectivity towards the p53 null cells (HCT116 p53^−/− vs wild type) (HCT116^−/−): not selective | IC50 (HCT116^−/−): 4.74 ± 0.82 µM | IC50 (HCT116^+/+): 5.15 ± 0.5 µM | IC50 (NHDF): > 25 µM

O=C(Nc1cc(C(F)(F)F)ccc1Br)c1ccc2ccccc2c1O [6k]
IC50 (HCT116^−/−): 7.15 ± 1.96 µM | IC50 (HCT116^+/+): 8.18 ± 1.72 µM | IC50 (NHDF): 22.2 ± 0.83 µM

O=C(Nc1c(F)c(F)c(Br)c(F)c1F)c1ccc2ccccc2c1O [4y]
IC50 (HCT116^−/−): 5.68 ± 1.37 µM | IC50 (HCT116^+/+): 2.41 ± 0.69 µM | IC50 (NHDF): 7.87 ± 1.37 µM

O=C(Nc1ccccc1)c1ccc2ccccc2c1O [compound 1]
IC50 (HCT116^−/−; Homo sapiens, HCT-116): > 25 µM | IC50 (HCT116^+/+; Homo sapiens, HCT-116): > 25 µM

O=C(Nc1cccc(Cl)c1Cl)c1ccc2ccccc2c1O [5d]
IC50 (HCT116^−/−): 8.25 ± 0.64 µM | IC50 (HCT116^+/+): 4.66 ± 0.58 µM | IC50 (NHDF): > 25 µM

Cc1cccc(NC(=O)c2ccc3ccccc3c2O)c1 [3b]
IC50 (HCT116^−/−): > 25 µM | IC50 (HCT116^+/+): > 25 µM

O=C(Nc1cccc(Cl)c1)c1ccc2ccccc2c1O [5b]
IC50 (HCT116^−/−): 1.78 ± 0.32 µM | IC50 (HCT116^+/+): 4.7 ± 0.4 µM | IC50 (NHDF): > 25 µM

COc1cc(NC(=O)c2ccc3ccccc3c2O)cc(OC)c1OC [2f]
IC50 (HCT116^−/−): 8.78 ± 2.13 µM | IC50 (HCT116^+/+): 6.54 ± 2.42 µM | IC50 (NHDF): > 25 µM

O=C(Nc1ccccc1Cl)c1ccc2ccccc2c1O [5a]
IC50 (HCT116^−/−): 22.4 ± 3.58 µM | IC50 (HCT116^+/+): 16.5 ± 2.25 µM | IC50 (NHDF): > 25 µM

O=C(Nc1ccc(Br)cc1Cl)c1ccc2ccccc2c1O [5n]
IC50 (HCT116^−/−): 9.79 ± 1.95 µM | IC50 (HCT116^+/+): 2.33 ± 0.95 µM | IC50 (NHDF): 23.4 ± 0.86 µM

O=C(Nc1cccc(Br)c1)c1ccc2ccccc2c1O [6b]
IC50 (HCT116^−/−): 8.73 ± 0.89 µM | IC50 (HCT116^+/+): 9.19 ± 0.98 µM | IC50 (NHDF): 15.2 ± 2.48 µM

O=C(Nc1ccc([N+](=O)[O-])c(C(F)(F)F)c1)c1ccc2ccccc2c1O [7p]
IC50 (HCT116^−/−): 1.39 ± 0.44 µM | IC50 (HCT116^+/+): 1.64 ± 0.47 µM | IC50 (NHDF): 9.68 ± 1.49 µM

O=C(Nc1cccc(F)c1)c1ccc2ccccc2c1O [4b]
IC50 (HCT116^−/−): 9.02 ± 1.91 µM | IC50 (HCT116^+/+): 1.88 ± 0.33 µM | IC50 (NHDF): > 25 µM

O=C(Nc1cc(C(F)(F)F)ccc1Cl)c1ccc2ccccc2c1O [5r]
IC50 (HCT116^−/−; Homo sapiens, HCT-116): 1.46 ± 0.21 µM | IC50 (HCT116^+/+; Homo sapiens, HCT-116): 2.48 ± 0.31 µM | IC50 (NHDF; Homo sapiens, NHDF): 12.4 ± 1.14 µM

COc1cccc(NC(=O)c2ccc3ccccc3c2O)c1 [2b]
IC50 (HCT116^−/−): 24.1 ± 3.54 µM | IC50 (HCT116^+/+): 8.51 ± 1.69 µM | IC50 (NHDF): > 25 µM

Cc1ccc(C)c(NC(=O)c2ccc3ccccc3c2O)c1 [3d]
IC50 (HCT116^−/−; Homo sapiens, HCT-116): > 25 µM | IC50 (HCT116^+/+; Homo sapiens, HCT-116): > 25 µM

O=C(Nc1ccccc1[N+](=O)[O-])c1ccc2ccccc2c1O [8a]
IC50 (HCT116^−/−): > 25 µM | IC50 (HCT116^+/+): 23.3 ± 3.77 µM | IC50 (NHDF): 22.7 ± 2.71 µM

Cc1cccc(C)c1NC(=O)c1ccc2ccccc2c1O [3e]
IC50 (HCT116^−/−; Homo sapiens, HCT-116): > 25 µM | IC50 (HCT116^+/+; Homo sapiens, HCT-116): > 25 µM

O=C(Nc1cc(Br)ccc1Cl)c1ccc2ccccc2c1O [5q]
IC50 (HCT116^−/−): 5.4 ± 2.04 µM | IC50 (HCT116^+/+): 4.18 ± 1.49 µM | IC50 (NHDF): > 25 µM

O=C(Nc1ccccc1C(F)(F)F)c1ccc2ccccc2c1O [7a]
IC50 (HCT116^−/−): 21.4 ± 1.24 µM | IC50 (HCT116^+/+): > 25 µM
